# Measurements as given in PubChem BioAssay (NCI).
# Values joined by “and” are separate entries in the source; they are usually repeats but may differ in a detail not shown here. Identical values can stand only once.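 Cultured in 96-well plates, cells were exposed to test compound for 48 hours across five concentrations. GI50 is the concentration that inhibits growth by half. TGI is the concentration that stops growth completely.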
# How the values were obtained:
# Test in all cases: growth of human tumour cells (NCI), 48 h
# U251 CNS = test system: U251 CNS
# K-562 leukemia = test system: K-562 leukemia
# OVCAR-5 ovarian = test system: OVCAR-5 ovarian
# SW-620 colon = test system: SW-620 colon
# CAKI-1 renal = test system: CAKI-1 renal
# SNB-78 CNS = test system: SNB-78 CNS
# SF-268 CNS = test system: SF-268 CNS
# M14 melanoma = test system: M14 melanoma
# NCI/ADR-RES ovarian = test system: NCI/ADR-RES ovarian
# OVCAR-3 ovarian = test system: OVCAR-3 ovarian
# KM12 colon = test system: KM12 colon
# 786-0 renal = test system: 786-0 renal
# DMS 273 small cell lung = test system: DMS 273 small cell lung
# A549 NSCLC = test system: A549 NSCLC
# MCF7 breast = test system: MCF7 breast
# M19-MEL melanoma = test system: M19-MEL melanoma
# TK-10 renal = test system: TK-10 renal
# HOP-92 NSCLC = test system: HOP-92 NSCLC
# SNB-75 CNS = test system: SNB-75 CNS
# SN12K1 renal = test system: SN12K1 renal
# OVCAR-8 ovarian = test system: OVCAR-8 ovarian
# SK-OV-3 ovarian = test system: SK-OV-3 ovarian
# SK-MEL-28 melanoma = test system: SK-MEL-28 melanoma
# NCI-H23 lung = test system: NCI-H23 lung
# HCC-2998 colon = test system: HCC-2998 colon
# UACC-62 melanoma = test system: UACC-62 melanoma
# HCT-15 colon = test system: HCT-15 colon
# KM20L2 colon = test system: KM20L2 colon
# OVCAR-4 ovarian = test system: OVCAR-4 ovarian
# SK-MEL-2 melanoma = test system: SK-MEL-2 melanoma
# NCI-H460 lung = test system: NCI-H460 lung
# DLD-1 colon = test system: DLD-1 colon
# IGROV1 ovarian = test system: IGROV1 ovarian
# SR leukemia = test system: SR leukemia
# MOLT-4 leukemia = test system: MOLT-4 leukemia
# MALME-3M melanoma = test system: MALME-3M melanoma
# HL-60(TB) leukemia = test system: HL-60(TB) leukemia
# SN12C renal = test system: SN12C renal
# EKVX NSCLC = test system: EKVX NSCLC
# NCI-H522 lung = test system: NCI-H522 lung
# SNB-19 CNS = test system: SNB-19 CNS
# SF-539 CNS = test system: SF-539 CNS
# RXF-631 renal = test system: RXF-631 renal
# DMS 114 small cell lung = test system: DMS 114 small cell lung
# LOX IMVI melanoma = test system: LOX IMVI melanoma
# UO-31 renal = test system: UO-31 renal
# RXF 393 renal = test system: RXF 393 renal
# XF 498 CNS = test system: XF 498 CNS
# LXFL 529 NSCLC = test system: LXFL 529 NSCLC
# ACHN renal = test system: ACHN renal
# HOP-62 NSCLC = test system: HOP-62 NSCLC
# CCRF-CEM leukemia = test system: CCRF-CEM leukemia
# UACC-257 melanoma = test system: UACC-257 melanoma
# HT29 colon = test system: HT29 colon
# SF-295 CNS = test system: SF-295 CNS
smiles,measurement,setting,value
CC(C)CCCCCCCCCCCCC(=O)NCC(=O)NC1C(C)OC(Nc2ncnc3nc[nH]c23)C(O)C1O (centres undefined),GI50,U251 CNS,0.334 nM
same,TGI,U251 CNS,38 nM
same,GI50,K-562 leukemia,41.4 nM
same,GI50,OVCAR-5 ovarian,8.14 nM
same,GI50,SW-620 colon,2.18 nM
same,TGI,SW-620 colon,146 nM and 23.3 nM
same,GI50,CAKI-1 renal,2.64 nM
same,TGI,SNB-78 CNS,7.18 nM and 6.18 nM
same,GI50,SF-268 CNS,0.965 nM
same,TGI,SF-268 CNS,343 nM
same,GI50,M14 melanoma,2.52 nM
same,TGI,NCI/ADR-RES ovarian,71.6 nM
same,TGI,OVCAR-3 ovarian,2.4 nM
same,GI50,KM12 colon,0.442 nM
same,TGI,KM12 colon,208 nM
same,GI50,786-0 renal,1.82 nM
same,TGI,786-0 renal,232 nM
same,GI50,DMS 273 small cell lung,0.0184 nM
same,TGI,DMS 273 small cell lung,0.586 nM
same,GI50,A549 NSCLC,3.24 nM
same,TGI,A549 NSCLC,472 nM and 190 nM
same,TGI,MCF7 breast,264 nM
same,GI50,M19-MEL melanoma,0.861 nM
same,TGI,M19-MEL melanoma,14 nM
same,TGI,TK-10 renal,9.6 nM and 80.9 nM
same,GI50,HOP-92 NSCLC,0.324 nM
same,TGI,HOP-92 NSCLC,2.19 nM and 4.91 nM
same,GI50,SNB-75 CNS,52.2 nM
same,TGI,SNB-75 CNS,3.16 nM
same,TGI,SN12K1 renal,116 nM
same,GI50,OVCAR-8 ovarian,1.87 nM
same,TGI,OVCAR-8 ovarian,9.24 nM and 18.2 nM
same,GI50,SK-OV-3 ovarian,0.454 nM and 3.14 nM
same,TGI,SK-OV-3 ovarian,3.97 nM and 28.6 nM
same,GI50,SK-MEL-28 melanoma,8.69 nM and 48.4 nM
same,TGI,SK-MEL-28 melanoma,485 nM and 1260 nM
same,GI50,NCI-H23 lung,8.75 nM
same,TGI,NCI-H23 lung,172 nM
same,GI50,HCC-2998 colon,1.21 nM
same,GI50,UACC-62 melanoma,0.425 nM and 0.705 nM
same,TGI,UACC-62 melanoma,8.92 nM and 22.6 nM
same,GI50,HCT-15 colon,573 nM
same,TGI,HCT-15 colon,3840 nM
same,GI50,KM20L2 colon,0.0575 nM
same,TGI,KM20L2 colon,497 nM
same,GI50,OVCAR-4 ovarian,14.8 nM
same,TGI,OVCAR-4 ovarian,8.03 nM
same,GI50,SK-MEL-2 melanoma,18.3 nM
same,TGI,NCI-H460 lung,5.77 nM and < 11.1 nM
same,TGI,DLD-1 colon,105 nM
same,GI50,IGROV1 ovarian,3.19 nM
same,TGI,IGROV1 ovarian,82 nM and < 44.4 nM
same,GI50,SR leukemia,4.51 nM
same,GI50,MOLT-4 leukemia,2.13 nM
same,TGI,MOLT-4 leukemia,7.88 nM and 32.3 nM
same,GI50,MALME-3M melanoma,2.54 nM
same,GI50,HL-60(TB) leukemia,1 nM
same,TGI,HL-60(TB) leukemia,4.6 nM and 14.1 nM
same,GI50,SN12C renal,5.48 nM
same,TGI,SN12C renal,683 nM
same,GI50,EKVX NSCLC,25.1 nM
same,GI50,NCI-H522 lung,1.37 nM
same,TGI,NCI-H522 lung,18.2 nM
same,GI50,SNB-19 CNS,8.45 nM
same,GI50,SF-539 CNS,11 nM
same,TGI,RXF-631 renal,0.583 nM
same,GI50,DMS 114 small cell lung,1.61 nM and 14.8 nM
same,TGI,DMS 114 small cell lung,263 nM and 50.6 nM
same,GI50,LOX IMVI melanoma,0.2 nM
same,GI50,UO-31 renal,2.01 nM
same,GI50,RXF 393 renal,1.01 nM
same,TGI,RXF 393 renal,36.9 nM
same,GI50,XF 498 CNS,0.129 nM
same,TGI,XF 498 CNS,0.925 nM
same,GI50,LXFL 529 NSCLC,3.36 nM
same,TGI,LXFL 529 NSCLC,515 nM
same,GI50,ACHN renal,1.53 nM
same,TGI,ACHN renal,6.66 nM
same,TGI,HOP-62 NSCLC,8.59 nM
same,TGI,CCRF-CEM leukemia,223 nM
same,TGI,UACC-257 melanoma,472 nM
same,GI50,HT29 colon,4.53 nM
same,GI50,SF-295 CNS,17.6 nM
same,TGI,SF-295 CNS,< 29.5 nM
